Source: patent US8426458B2, “Hepatitis C Virus inhibitors” (priority 2009, dated 2013)
pEC50: −log10 of the molar value.

Test system: HCV 1b genotype replicon
Assay: HCV replicon assay (qRT-PCR or luciferase), genotype 1b
Assay type: cell-based
Settings: Hepatitis C virus, read-out: Genotype-1b replicon EC50 Range
Description: HCV replicon cell lines (kindly provided by R. Bartenschlager) isolated from colonies as described by Lohman et. al. (Lohman et al. (1999) Science 285: 110-113, expressly incorporated by reference in its entirety) and used for all experiments. The HCV replicon has the nucleic acid sequence set forth in EMBL Accession No.: AJ242651, the coding sequence of which is from nucleotides 1801 to 8406.
The coding sequence of the published HCV replicon was synthesized and subsequently assembled in a modified plasmid pBR322 (Promega, Madison, Wis.) using standard molecular biology techniques. […]
EC50 values of single agent compounds and combinations were determined by HCV RNA detection using quantitative RT-PCR, according to the manufacturer's instructions, with a TaqMan® One-Step RT-PCR Master Mix Reagents Kit (Cat# AB 4309169, Applied Biosystems) on an ABI Model 7500 thermocycler. The TaqMan primers used for detecting and quantifying HCV RNA were obtained from Integrated DNA Technologies. HCV RNA was normalized to GAPDH RNA levels in drug-treated cells, which is detected and quantified using the Human GAPDH Endogenous Control Mix (Applied Biosystems, AB 4310884E). […] Chemical agent cytotoxicity is evaluated using an MTS assay according to the manufacturer's directions (Promega). […]

**Q.** CN(C)[C@H](C(=O)N1CCC[C@H]1c1nc(C(=O)N[C@H]2CC[C@H](NC(=O)c3c[nH]c([C@@H]4CCCN4C(=O)[C@@H](c4ccccc4)N(C)C)n3)CC2)c[nH]1)c1ccccc1 [Example 2] was tested. Which pEC50 did it give?
**A.** < 8.00
